Experimental data as given in patent publication US20110039762A1, “TARGETED ANTIMICROBIAL MOIETIES” (C3 JIAN, INC., priority 2009, published 2011).

Tests used:
[1] = tested on: B. subtilis; assay: MIC (broth microdilution); assay type: cell-based, Bacillus subtilis
Method in brief: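 Ten repeat experiments used NCCLS dilution susceptibility testing: MH broth, ˜1×10^5 cfu/mL starting density, 2-fold peptide titration, 18-24 h incubation at 37° C.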

[2] = tested on: MRSA; assay: Kill or inhibit growth/proliferation; morphology, biofilm and growth disruption (Tables 5, 6); assay type: cell-based, Methicillin-resistant Staphylococcus aureus; design: key: A: Peptide aggregates; B: Less hyphal formation; Clumps; Diffuse clumps and small polyps; F: Diffuse growth; H: Thin; I: Growth inhibition; Microcolony formation; Rippled; Small polyps; Thick; W: Halo formation on top, microlonies on bottom; further: test concentration or dose not given here
[3] = tested on: MRSA; assay: MIC (broth microdilution); assay type: cell-based, Methicillin-resistant Staphylococcus aureus
Description: (§1) Typically, the in vitro antimicrobial activity of antimicrobial agents is tested using standard NCCLS bacterial inhibition assays, or MIC tests (see, National Committee on Clinical Laboratory Standards “Performance Standards for Antimicrobial Susceptibility Testing,” NCCLS Document M100-S5 Vol. 14, No. 16, December 1994; “Methods for dilution antimicrobial susceptibility test for bacteria that grow aerobically-Third Edition,” Approved Standard M7-A3, National Committee for Clinical Standards, Villanova, Pa.).
(§2) Briefly, ˜1×10^5 cfu/mL bacteria were diluted in TH (S. mutans), or Mueller-Hinton (MH) broth (all other organisms) and distributed to 96-well plates. Serially-diluted (2-fold) peptides were then added and the plates incubated at 37° C. for 18-24 h. […] All experiments were conducted 10 times.

[4] = tested on: C. jejuni; assay: Kill or inhibit growth/proliferation; morphology, biofilm and growth disruption (Tables 5, 6); assay type: cell-based, Campylobacter jejuni; design: key: A: Peptide aggregates; B: Less hyphal formation; Clumps; Diffuse clumps and small polyps; F: Diffuse growth; H: Thin; I: Growth inhibition; Microcolony formation; Rippled; Small polyps; Thick; W: Halo formation on top, microlonies on bottom; further: test concentration or dose not given here
[5] = tested on: microorganisms; assay: Peptides having multiple activities (targeting/binding, antimicrobial, growth or phenotype altering)
Excerpt: In certain embodiments, peptides described herein can have multiple activities. Thus for example, a peptide can have both binding/targeting activity and antimicrobial activity. Such peptides can be used, e.g., in a chimeric construct, for any or all of these properties. Thus, for example, a peptide designated “B” in Table 8 can be used as a targeting peptide. If it is also designated G or M it can also be used for antimicrobial activity.

[6] = tested on: S. epidermidis; assay: Kill or inhibit growth/proliferation; morphology, biofilm and growth disruption (Tables 5, 6); assay type: cell-based, Staphylococcus epidermidis; design: key: A: Peptide aggregates; B: Less hyphal formation; Clumps; Diffuse clumps and small polyps; F: Diffuse growth; H: Thin; I: Growth inhibition; Microcolony formation; Rippled; Small polyps; Thick; W: Halo formation on top, microlonies on bottom; further: test concentration or dose not given here
[7] = tested on: B. subtilis; assay: as above; assay type: cell-based, Bacillus subtilis; design: key: A: Peptide aggregates; B: Less hyphal formation; Clumps; Diffuse clumps and small polyps; F: Diffuse growth; H: Thin; I: Growth inhibition; Microcolony formation; Rippled; Small polyps; Thick; W: Halo formation on top, microlonies on bottom
[8] = tested on: microorganisms (e.g., bacteria, yeasts, fungi); assay: Targeting peptide binding to target microorganisms (Table 3); details: preferably 1x PBS
[9] = tested on: S. pneumoniae; assay: Kill or inhibit growth/proliferation; morphology, biofilm and growth disruption (Tables 5, 6); assay type: cell-based, Streptococcus pneumoniae; design: key: A: Peptide aggregates; B: Less hyphal formation; Clumps; Diffuse clumps and small polyps; F: Diffuse growth; H: Thin; I: Growth inhibition; Microcolony formation; Rippled; Small polyps; Thick; W: Halo formation on top, microlonies on bottom; further: test concentration or dose not given here
[10] = tested on: M. luteus; assay: as above; assay type: cell-based, Micrococcus luteus; design: key: A: Peptide aggregates; B: Less hyphal formation; Clumps; Diffuse clumps and small polyps; F: Diffuse growth; H: Thin; I: Growth inhibition; Microcolony formation; Rippled; Small polyps; Thick; W: Halo formation on top, microlonies on bottom; further: test concentration or dose not given here
[11] = tested on: A. baumannii; assay: MIC (broth microdilution); assay type: cell-based, Acinetobacter baumannii
Description: as §1, §2

[12] = tested on: S. mutans; assay type: cell-based, Streptococcus mutans; details: S. mutans
Description: as §1, §2

[13] = tested on: P. aeruginosa; assay type: cell-based, Pseudomonas aeruginosa; details: P. aeruginosa
Description: as §1, §2

[14] = tested on: S. mutans; assay: Kill or inhibit growth/proliferation; morphology, biofilm and growth disruption (Tables 5, 6); assay type: cell-based, Streptococcus mutans; design: key: A: Peptide aggregates; B: Less hyphal formation; Clumps; Diffuse clumps and small polyps; F: Diffuse growth; H: Thin; I: Growth inhibition; Microcolony formation; Rippled; Small polyps; Thick; W: Halo formation on top, microlonies on bottom; further: test concentration or dose not given here
[15] = tested on: E. coli; assay: as above; assay type: cell-based, Escherichia coli; design: key: A: Peptide aggregates; B: Less hyphal formation; Clumps; Diffuse clumps and small polyps; F: Diffuse growth; H: Thin; I: Growth inhibition; Microcolony formation; Rippled; Small polyps; Thick; W: Halo formation on top, microlonies on bottom
[16] = tested on: E. coli; assay type: cell-based, Escherichia coli; details: E. coli; on Organism, effect (morphology, biofilm and growth disruption): test concentration or dose not given here; on Organism, effect: test concentration or dose not given here
Description: as §1, §2

[17] = tested on: S. pneumoniae; assay: MIC (broth microdilution); assay type: cell-based, Streptococcus pneumoniae
Description: as §1, §2

[18] = tested on: C. jeikeium; assay: Kill or inhibit growth/proliferation; morphology, biofilm and growth disruption (Tables 5, 6); assay type: cell-based, Corynebacterium jeikeium; design: key: A: Peptide aggregates; B: Less hyphal formation; Clumps; Diffuse clumps and small polyps; F: Diffuse growth; H: Thin; I: Growth inhibition; Microcolony formation; Rippled; Small polyps; Thick; W: Halo formation on top, microlonies on bottom; further: test concentration or dose not given here
[19] = tested on: P. mirabilis; assay: as above; assay type: cell-based; design: key: A: Peptide aggregates; B: Less hyphal formation; Clumps; Diffuse clumps and small polyps; F: Diffuse growth; H: Thin; I: Growth inhibition; Microcolony formation; Rippled; Small polyps; Thick; W: Halo formation on top, microlonies on bottom; further: test concentration or dose not given here
[20] = tested on: E. faecalis; assay: as above; assay type: cell-based, Enterococcus faecalis; design: key: A: Peptide aggregates; B: Less hyphal formation; Clumps; Diffuse clumps and small polyps; F: Diffuse growth; H: Thin; I: Growth inhibition; Microcolony formation; Rippled; Small polyps; Thick; W: Halo formation on top, microlonies on bottom; further: test concentration or dose not given here
Wherever Organism, effect is given: test concentration or dose not given here.

| Substance | Organism, effect [2] | MIC [3] | Organism, effect [4] | Activities [5] | Organism, effect [6] | Organism, effect [7] | Organism, effect [9] | Organism, effect [10] | MIC [11] | Organism, effect [14] | Organism, effect [15] | further results |
| --- | --- | --- | --- | --- | --- | --- | --- | --- | --- | --- | --- | --- |
| MGIIAGIIKFIKGLIEKFTGK [PF-006] | MRSA (I) | MRSA , 50 μM | C. jejuni (D) | G B M | S. epidermidis (D) | B. subtilis (I) | S. pneumoniae (R) | M. luteus (A) | A. baumannii, 50 μM |  |  | MIC [1]: B. subtilis, 25 μM; Target(s) ([8]; microorganism the targeting peptide binds, binding in aqueous buffers varied by peptide solubility): S. epidermidis and M. luteus and E. coli and P. aeruginosa and MRSA and E. faecalis and C. jeikeium and C. jejuni |
| FIRKFLQKLHL [Peptide K-16] |  | MRSA , 25 μM |  |  |  |  |  |  |  |  |  | MIC [12]: S. mutans, 8 μM; MIC [13]: P. aeruginosa, 12.5 μM |
| TKKIELKRFVDAFVKKSYENYILERELKKLIKAINEELPTK [PF-600] | MRSA (M) |  |  | G B M | S. epidermidis (C) |  | S. pneumoniae (R) | M. luteus (C) |  | S. mutans (S) | E. coli (H) | MIC [16]: E. coli, 50 μM; MIC [17]: S. pneumoniae, 50 μM |
| MIHLTKQNTMEALHFIKQFYDMFFILNFNV [PF-040] | MRSA (D) |  | C. jejuni (D) | G B | S. epidermidis (D) | B. subtilis (D) | S. pneumoniae (D) | M. luteus (D) |  | S. mutans (F) | E. coli (C) | Organism, effect [18]: C. jeikeium (D); Organism, effect [19]: P. mirabilis (C) |
| SKFKVLRKIIIKEYKGELMLSIQKQR [PF-530] | MRSA (C) |  |  | G M | S. epidermidis (H) |  | S. pneumoniae (R) |  | A. baumannii, 25 μM |  | E. coli (R) | Organism, effect [20]: E. faecalis (C) |
| PF-741: peptide having multiple activities (AKREDTVAAQIGANILNLIQ; Peptide with targeting and/or antimicrobial activity) |  |  |  | G B |  |  |  |  |  |  |  | Organism, effect (morphology, biofilm and growth disruption) [2]: MRSA (C); Organism, effect (morphology, biofilm and growth disruption) [14]: S. mutans (D); Organism, effect (morphology, biofilm and growth disruption) [6]: S. epidermidis (C); Target(s) (microorganisms bound by the targeting peptide) ([8]; peptide binding in aqueous buffers varied by peptide solubility): S. epidermidis and M. luteus and P. mirabilis and P. aeruginosa and C. albicans and MRSA and S. pneumoniae and E. faecalis; Organism, effect (morphology, biofilm and growth disruption) [9]: S. pneumoniae (D); Organism, effect (morphology, biofilm and growth disruption) [15]: E. coli (C); Organism, effect (morphology, biofilm and growth disruption) [19]: P. mirabilis (C); Organism, effect (morphology, biofilm and growth disruption) [10]: M. luteus (C) |
